Source: paper PMC6934184, “Selective DNA-PKcs inhibition extends the therapeutic index of localized radiotherapy and chemotherapy” (The Journal of Clinical Investigation, 2019)

Molecular target: T1, SRMS (Srm) (Homo sapiens, UniProt Q9H3Y6)
T1 construct: purchased Thermo Fisher Scientific (Life Technologies) SelectScreen
Test: SelectScreen Z'LYTE
Format: biochemical
In short: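 NU5455 was profiled across the SelectScreen Broad panel of kinase activity and binding assays. Z'LYTE reactions such as CSF1R ran at apparent Km ATP, while the Adapta CAMK1 assay used ATP listed as 10. Values are given as percent.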

T1 sequence (Q9H3Y6 whole entry): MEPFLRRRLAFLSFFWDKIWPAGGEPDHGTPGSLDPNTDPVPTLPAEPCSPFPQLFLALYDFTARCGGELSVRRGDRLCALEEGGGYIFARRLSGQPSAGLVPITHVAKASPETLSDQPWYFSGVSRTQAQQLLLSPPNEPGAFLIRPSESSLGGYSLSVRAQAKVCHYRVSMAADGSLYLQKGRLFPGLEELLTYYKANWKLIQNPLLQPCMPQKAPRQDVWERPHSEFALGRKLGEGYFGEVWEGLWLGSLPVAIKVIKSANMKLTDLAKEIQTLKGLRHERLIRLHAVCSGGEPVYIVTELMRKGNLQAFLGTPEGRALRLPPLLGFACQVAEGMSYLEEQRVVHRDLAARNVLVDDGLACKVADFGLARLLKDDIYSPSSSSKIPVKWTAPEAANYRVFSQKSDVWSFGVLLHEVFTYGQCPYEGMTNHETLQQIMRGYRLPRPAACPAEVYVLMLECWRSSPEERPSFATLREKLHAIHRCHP

CN(C(=O)CN1CCOCC1)c1ccc2sc3c(-c4cccc5c(=O)cc(N6CC7CCC(C6)O7)oc45)cccc3c2c1 [NU5455]
inhibition at 1 µM: 7.5%
